System: RS4; 11 with G101V mutation
Test: In vitro anti-proliferation assay (ATPlite luminescence) in BCL-2-dependent ALL cell line RS4;11 with G101V mutation
Type: cell-based
Settings: cellular anti-proliferative IC50, about 72 hours, medium with 10% FBS, ATPlite; read-out: RS411-G101V IC50
How it was run: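 IC50 came from luminescent ATP quantification (ATPlite) following cell lysis. Compound dose ranges were applied for roughly 72 h to about 1×10^4 G101V-mutant RS4;11 cells per well, in 10% FBS medium.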

COc1cc(CN2CCN(C3CC4(CCN(c5ccc(C(=O)NS(=O)(=O)c6ccc(NCC7CCC(C)(O)CC7)c([N+](=O)[O-])c6)c(N6c7cc8cc[nH]c8nc7O[C@H]7COCC[C@@H]76)c5)CC4)C3)[C@@H](c3ccccc3C)C2)cnc1OC (stereo partly drawn) [Example 149, 4-(2-((S)-4-((5,6-dimethoxypyridin-3-yl)methyl)-2-(o-tolyl)piperazin-1-yl)-7-azaspiro[3.5]nonan-7-yl)-N-((4-((((1r,4r)-4-hydroxy-4-methylcyclohexyl)methyl)amino)-3-nitrophenyl)sulfonyl)-2-((5aS,9aR)-6,7,9,9a-tetrahydro-1H-pyrano[3,4-b]pyrrolo[3′,2′:5,6]pyrido[3,2-e][1,4]oxazin-5(5aH)-yl)benzamide] and COc1ncc(CN2CCN(C3CC4(CCN(c5ccc(C(=O)NS(=O)(=O)c6ccc(NCC7CCC(C)(O)CC7)c([N+](=O)[O-])c6)c(N6c7cc8cc[nH]c8nc7O[C@H]7COCC[C@@H]76)c5)CC4)C3)[C@@H](c3ccccc3OC(C)C)C2)cc1C (stereo partly drawn) [Example 158, N-((4-((((1r,4r)-4-hydroxy-4-methylcyclohexyl)methyl)amino)-3-nitrophenyl)sulfonyl)-4-(2-((S)-2-(2-isopropoxyphenyl)-4-((6-methoxy-5-methylpyridin-3-yl)methyl)piperazin-1-yl)-7-azaspiro[3.5]nonan-7-yl)-2-((5aS,9aR)-6,7,9,9a-tetrahydro-1H-pyrano[3,4-b]pyrrolo[3′,2′:5,6]pyrido[3,2-e][1,4]oxazin-5(5aH)-yl)benzamide] are within 1.5-fold of each other in IC50: 28.3 nM for the first, 21.2 nM for the second.

COc1nccc(CN2CCN(C3CC4(CCN(c5ccc(C(=O)NS(=O)(=O)c6ccc(NCC7CCC(C)(O)CC7)c([N+](=O)[O-])c6)c(N6c7cc8cc[nH]c8nc7O[C@H]7COCC[C@@H]76)c5)CC4)C3)[C@@H](c3ccccc3OC(C)C)C2)c1OC (stereo partly drawn) [Example 150, 4-(2-((S)-4-((2,3-dimethoxypyridin-4-yl)methyl)-2-(2-isopropoxyphenyl)piperazin-1-yl)-7-azaspiro[3.5]nonan-7-yl)-N-((4-((((1r,4r)-4-hydroxy-4-methylcyclohexyl)methyl)amino)-3-nitrophenyl)sulfonyl)-2-((5aS,9aR)-6,7,9,9a-tetrahydro-1H-pyrano[3,4-b]pyrrolo[3′,2′:5,6]pyrido[3,2-e][1,4]oxazin-5(5aH)-yl)benzamide] and COc1c(CN2CCN(C3CC4(CCN(c5ccc(C(=O)NS(=O)(=O)c6ccc(NCC7CCC(C)(O)CC7)c([N+](=O)[O-])c6)c(N6c7cc8cc[nH]c8nc7O[C@H]7COCC[C@@H]76)c5)CC4)C3)[C@@H](c3ccccc3OC(C)C)C2)ccnc1N1CCOCC1 (stereo partly drawn) [Example 151, N-((4-((((1r,4r)-4-hydroxy-4-methylcyclohexyl)methyl)amino)-3-nitrophenyl)sulfonyl)-4-(2-((S)-2-(2-isopropoxyphenyl)-4-((3-methoxy-2-morpholinopyridin-4-yl)methyl)piperazin-1-yl)-7-azaspiro[3.5]nonan-7-yl)-2-((5aS,9aR)-6,7,9,9a-tetrahydro-1H-pyrano[3,4-b]pyrrolo[3′,2′:5,6]pyrido[3,2-e][1,4]oxazin-5(5aH)-yl)benzamide] are within 1.5-fold of each other in IC50: 14.1 nM for the first, 19.8 nM for the second.

CC(C)Oc1ccccc1[C@H]1CN(Cc2ccc3c(c2)OCCO3)CCN1C1CC2(CCN(c3ccc(C(=O)NS(=O)(=O)c4ccc(NCC5CCC(C)(O)CC5)c([N+](=O)[O-])c4)c(N4c5cc6cc[nH]c6nc5O[C@H]5COCC[C@@H]54)c3)CC2)C1 (stereo partly drawn) [Example 152, 4-(2-((S)-4-((2,3-dihydrobenzo[b][1,4]dioxin-6-yl)methyl)-2-(2-isopropoxyphenyl)piperazin-1-yl)-7-azaspiro[3.5]nonan-7-yl)-N-((4-((((1r,4r)-4-hydroxy-4-methylcyclohexyl)methyl)amino)-3-nitrophenyl)sulfonyl)-2-((5aS,9aR)-6,7,9,9a-tetrahydro-1H-pyrano[3,4-b]pyrrolo[3′,2′:5,6]pyrido[3,2-e][1,4]oxazin-5(5aH)-yl)benzamide] and COc1cc(CN2CCN(C3CC4(CCN(c5ccc(C(=O)NS(=O)(=O)c6ccc(NC[C@H]7CC[C@](C)(O)CC7)c([N+](=O)[O-])c6)c(N6c7cc8cc[nH]c8nc7O[C@H]7COCC[C@@H]76)c5)CC4)C3)[C@@H](c3ccccc3OC(C)C)C2)ccc1C1CC1 [Example 157, 4-(2-((S)-4-(4-cyclopropyl-3-methoxybenzyl)-2-(2-isopropoxyphenyl)piperazin-1-yl)-7-azaspiro[3.5]nonan-7-yl)-N-((4-((((1r,4r)-4-hydroxy-4-methylcyclohexyl)methyl)amino)-3-nitrophenyl)sulfonyl)-2-((5aS,9aR)-6,7,9,9a-tetrahydro-1H-pyrano[3,4-b]pyrrolo[3′,2′:5,6]pyrido[3,2-e][1,4]oxazin-5(5aH)-yl)benzamide] are within 1.5-fold of each other in IC50: 28.3 nM for the first, 31.8 nM for the second.

Going from CC(C)Oc1ccccc1[C@H]1CN(Cc2ccc(N3CCOC[C@H]3C)c(F)c2)CCN1C1CC2(CCN(c3ccc(C(=O)NS(=O)(=O)c4ccc(NCC5CCC(C)(O)CC5)c([N+](=O)[O-])c4)c(N4c5cc6cc[nH]c6nc5O[C@H]5COCC[C@@H]54)c3)CC2)C1 (stereo partly drawn) [Example 153, 2-[(3R,8S)-2,5-dioxa-9,15,17-triazatetracyclo[8.7.0.0^{3,8}.0^{12,16}]heptadeca-1(10),11,13,16-tetraen-9-yl]-4-{2-[(2S)-4-({3-fluoro-4-[(3R)-3-methylmorpholin-4-yl]phenyl}methyl)-2-(2-isopropoxyphenyl)piperazin-1-yl]-7-azaspiro[3.5]nonan-7-yl}-N-[3-nitro-4-({[(1r,4r)-4-hydroxy-4-methylcyclohexyl]methyl}amino)benzenesulfonyl]benzamide] to Cc1ccccc1[C@@H]1CN(Cc2ccc(N3CCOC[C@H]3C)c(F)c2)CCN1C1CC2(CCN(c3ccc(C(=O)NS(=O)(=O)c4ccc(NC[C@H]5CC[C@](C)(O)CC5)c([N+](=O)[O-])c4)c(N4c5cc6cc[nH]c6nc5O[C@H]5COCC[C@@H]54)c3)CC2)C1 [Example 155, 2-[(3R,8S)-2,5-dioxa-9,15,17-triazatetracyclo[8.7.0.0^{3,8}.0^{12,16}]heptadeca-1(10),11,13,16-tetraen-9-yl]-4-{2-[(2R)-4-({3-fluoro-4-[(3R)-3-methylmorpholin-4-yl]phenyl}methyl)-2-(2-methylphenyl)piperazin-1-yl]-7-azaspiro[3.5]nonan-7-yl}-N-[3-nitro-4-({[(1r,4r)-4-hydroxy-4-methylcyclohexyl]methyl}amino)benzenesulfonyl]benzamide], the IC50 rises from 47.1 nM to 91.8 nM (1.9-fold).

First: Cc1ccccc1[C@@H]1CN(Cc2ccc(F)c(F)c2)CCN1C1CC2(CCN(c3ccc(C(=O)NS(=O)(=O)c4ccc(NCC5CCC(C)(O)CC5)c([N+](=O)[O-])c4)c(N4c5cc6cc[nH]c6nc5O[C@H]5COCC[C@@H]54)c3)CC2)C1 (stereo partly drawn) [Example 154, 4-{2-[(2R)-4-[(3,4-difluorophenyl)methyl]-2-(2-methylphenyl)piperazin-1-yl]-7-azaspiro[3.5]nonan-7-yl}-2-[(3R,8S)-2,5-dioxa-9,15,17-triazatetracyclo[8.7.0.0^{3,8}.0^{12,16}]heptadeca-1(10),11,13,16-tetraen-9-yl]-N-[3-nitro-4-({[(1r,4r)-4-hydroxy-4-methylcyclohexyl]methyl}amino)benzenesulfonyl]benzamide]
Second: Cc1ccccc1[C@@H]1CN(CC2CCOCC2)CCN1C1CC2(CCN(c3ccc(C(=O)NS(=O)(=O)c4ccc(NC[C@H]5CC[C@](C)(O)CC5)c([N+](=O)[O-])c4)c(N4c5cc6cc[nH]c6nc5O[C@H]5COCC[C@@H]54)c3)CC2)C1 [Example 156, 2-[(3R,8S)-2,5-dioxa-9,15,17-triazatetracyclo[8.7.0.0^{3,8}.0^{12,16}]heptadeca-1(10),11,13,16-tetraen-9-yl]-4-{2-[(2R)-2-(2-methylphenyl)-4-(oxan-4-ylmethyl)piperazin-1-yl]-7-azaspiro[3.5]nonan-7-yl}-N-[3-nitro-4-({[(1r,4r)-4-hydroxy-4-methylcyclohexyl]methyl}amino)benzenesulfonyl]benzamide]
The IC50 of the first is 2.3-fold higher: 27.6 nM for the first, 12.2 nM for the second.

Going from CC(C)Oc1ccccc1[C@H]1CN(CC2CCOCC2)CCN1C1CC2(CCN(c3ccc(C(=O)NS(=O)(=O)c4ccc(NCC5CCC(C)(O)CC5)c([N+](=O)[O-])c4)c(N4c5cc6cc[nH]c6nc5O[C@H]5COCC[C@@H]54)c3)CC2)C1 (stereo partly drawn) [Example 159, 2-[(3R,8S)-2,5-dioxa-9,15,17-triazatetracyclo[8.7.0.0^{3,8}.0^{12,16}]heptadeca-1(10),11,13,16-tetraen-9-yl]-4-{2-[(2S)-2-(2-isopropoxyphenyl)-4-(oxan-4-ylmethyl)piperazin-1-yl]-7-azaspiro[3.5]nonan-7-yl}-N-[3-nitro-4-({[(1r,4r)-4-hydroxy-4-methylcyclohexyl]methyl}amino)benzenesulfonyl]benzamide] to CC(C)Oc1ccccc1[C@H]1CN(C2CCC(N3CCOC[C@H]3C)CC2)CCN1C1CC2(CCN(c3ccc(C(=O)NS(=O)(=O)c4ccc(NCC5CCC(C)(O)CC5)c([N+](=O)[O-])c4)c(N4c5cc6cc[nH]c6nc5O[C@H]5COCC[C@@H]54)c3)CC2)C1 (stereo partly drawn) [Example 160, N-((4-((((1r,4r)-4-hydroxy-4-methylcyclohexyl)methyl)amino)-3-nitrophenyl)sulfonyl)-4-(2-((S)-2-(2-isopropoxyphenyl)-4-((1S,4R)-4-((R)-3-methylmorpholino)cyclohexyl)piperazin-1-yl)-7-azaspiro[3.5]nonan-7-yl)-2-((5aS,9aR)-6,7,9,9a-tetrahydro-1H-pyrano[3,4-b]pyrrolo[3′,2′:5,6]pyrido[3,2-e][1,4]oxazin-5(5aH)-yl)benzamide], the IC50 rises from 7.5 nM to 22.8 nM (3-fold).

For CC(C)Oc1ccccc1[C@H]1CN(C2CCC(N3CCOC[C@H]3C)CC2)CCN1C1CC2(CCN(c3ccc(C(=O)NS(=O)(=O)c4ccc(NCC5CCC(C)(O)CC5)c([N+](=O)[O-])c4)c(N4c5cc6cc[nH]c6nc5O[C@H]5COCC[C@@H]54)c3)CC2)C1 (stereo partly drawn) [Example 161, N-((4-((((1r,4r)-4-hydroxy-4-methylcyclohexyl)methyl)amino)-3-nitrophenyl)sulfonyl)-4-(2-((S)-2-(2-isopropoxyphenyl)-4-((1R,4S)-4-((R)-3-methylmorpholino)cyclohexyl)piperazin-1-yl)-7-azaspiro[3.5]nonan-7-yl)-2-((5aS,9aR)-6,7,9,9a-tetrahydro-1H-pyrano[3,4-b]pyrrolo[3′,2′:5,6]pyrido[3,2-e][1,4]oxazin-5(5aH)-yl)benzamide], the IC50 was 18.1 nM.
